In assay [1] the target is Coagulation factor X (Bos taurus) (UniProt P00743). Put plainly: Inhibition of antithrombin-dependant bovine factor 10a activity at 2000 ng/ml preincubated for 1 mins followed by chromogenic substrate S10a-11 addition measured every 30 secs for 5 mins relative to control.
For assay [2], the target named is Coagulation factor IX/VIII (Homo sapiens, UniProt P00451+P00740). Description: Inhibition of human intrinsic factor tenase using factor-10 as substrate preincubated for 2 mins followed by substrate addition for 1 min measured every 30 secs for 5 mins by chromogenic substrate S10a-11 based assay. It counts as protein-complex assay.
Assay [3] addresses Prothrombin (Homo sapiens) (UniProt P00734). Put plainly: Inhibition of antithrombin-dependant factor 2a (unknown origin) activity at 2000 ng/ml preincubated for 2 mins followed by chromogenic substrate CS-01 addition measured every 30 secs for 5 mins relative to control.
The test system of assay [4] is Plasma. Description: Anticoagulant activity in human plasma assessed as concentration required for increase in clotting time after 2 mins by aPTT assay. It counts as functional.
Assay [5] relates to Plasma. Put plainly: Anticoagulant activity in human plasma assessed as concentration required for increase in clotting time after 2 mins by PT assay. In kind it is functional.
Assay [6] relates to Plasma. Put plainly: Anticoagulant activity in human plasma assessed as concentration required for increase in clotting time after 2 mins by TT assay. In kind it is functional.

From ChEMBL document CHEMBL4196037, “Precise structures of fucosylated glycosaminoglycan and its oligosaccharides as novel intrinsic factor Xase inhibitors” (Eur J Med Chem, 2018) come the findings set out here.

Where only a bound is given, the exact number is not on record here.

Usually inhibition stands for the relative decrease from the control value, in per cent. Lower therefore signals little suppression. Usually IC50 stands for the concentration needed to halve the response being measured. A high value points to weaker potency.

Sequence of Coagulation factor IX/VIII (P00451 20-759 limits assumed): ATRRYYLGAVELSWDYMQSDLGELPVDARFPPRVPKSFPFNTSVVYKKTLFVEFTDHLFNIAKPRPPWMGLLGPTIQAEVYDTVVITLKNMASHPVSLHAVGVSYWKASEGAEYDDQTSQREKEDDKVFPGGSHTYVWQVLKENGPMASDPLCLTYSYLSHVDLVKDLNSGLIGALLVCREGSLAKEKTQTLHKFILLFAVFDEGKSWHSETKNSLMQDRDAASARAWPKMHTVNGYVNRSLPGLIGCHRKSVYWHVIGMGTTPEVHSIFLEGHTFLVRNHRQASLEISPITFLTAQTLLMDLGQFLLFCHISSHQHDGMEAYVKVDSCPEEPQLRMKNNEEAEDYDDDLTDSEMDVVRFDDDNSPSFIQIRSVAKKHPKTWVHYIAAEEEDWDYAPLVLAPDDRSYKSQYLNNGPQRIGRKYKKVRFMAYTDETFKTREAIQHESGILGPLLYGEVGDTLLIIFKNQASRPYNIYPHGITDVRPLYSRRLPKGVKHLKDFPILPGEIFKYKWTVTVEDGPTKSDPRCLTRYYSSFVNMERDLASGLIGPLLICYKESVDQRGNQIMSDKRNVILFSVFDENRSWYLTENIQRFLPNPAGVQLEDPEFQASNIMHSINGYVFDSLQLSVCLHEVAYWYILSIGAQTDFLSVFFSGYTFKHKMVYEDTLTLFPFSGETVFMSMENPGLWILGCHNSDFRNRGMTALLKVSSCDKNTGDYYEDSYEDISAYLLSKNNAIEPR
Sequence of Coagulation factor IX/VIII (P00451 1668-2351 limits assumed): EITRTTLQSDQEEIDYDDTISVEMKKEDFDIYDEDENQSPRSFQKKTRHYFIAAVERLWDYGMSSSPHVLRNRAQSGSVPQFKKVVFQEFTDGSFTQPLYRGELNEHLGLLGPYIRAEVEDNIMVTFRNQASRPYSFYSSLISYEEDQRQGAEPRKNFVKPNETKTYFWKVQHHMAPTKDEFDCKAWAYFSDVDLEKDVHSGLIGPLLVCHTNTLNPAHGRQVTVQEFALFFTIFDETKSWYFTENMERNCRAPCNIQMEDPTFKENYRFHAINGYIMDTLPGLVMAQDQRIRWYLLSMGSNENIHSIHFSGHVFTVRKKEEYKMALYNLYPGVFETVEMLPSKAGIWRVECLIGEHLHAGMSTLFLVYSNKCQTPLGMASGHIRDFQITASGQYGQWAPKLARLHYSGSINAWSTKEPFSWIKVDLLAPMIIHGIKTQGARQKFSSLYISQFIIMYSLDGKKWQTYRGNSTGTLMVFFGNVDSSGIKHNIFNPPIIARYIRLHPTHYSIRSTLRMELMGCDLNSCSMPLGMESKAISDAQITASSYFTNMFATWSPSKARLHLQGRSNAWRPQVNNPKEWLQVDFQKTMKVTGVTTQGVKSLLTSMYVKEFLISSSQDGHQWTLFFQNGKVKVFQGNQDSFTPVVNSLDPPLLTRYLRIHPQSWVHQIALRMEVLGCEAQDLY
Sequence of Coagulation factor IX/VIII (P00740 47-191 limits assumed): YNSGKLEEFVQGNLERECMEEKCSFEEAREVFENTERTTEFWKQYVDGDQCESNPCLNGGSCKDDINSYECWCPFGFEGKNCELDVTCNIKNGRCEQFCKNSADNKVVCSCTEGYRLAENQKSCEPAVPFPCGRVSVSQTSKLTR
Sequence of Coagulation factor IX/VIII (P00740 227-461 limits assumed): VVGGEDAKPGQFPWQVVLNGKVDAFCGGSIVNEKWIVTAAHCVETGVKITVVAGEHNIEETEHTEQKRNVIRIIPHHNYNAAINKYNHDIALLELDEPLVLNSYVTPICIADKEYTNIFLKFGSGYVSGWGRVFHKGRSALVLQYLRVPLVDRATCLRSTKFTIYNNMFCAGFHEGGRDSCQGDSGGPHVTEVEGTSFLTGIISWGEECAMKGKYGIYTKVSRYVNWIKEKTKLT
Sequence of Coagulation factor X (Bos taurus) (P00743 41-180 limits assumed): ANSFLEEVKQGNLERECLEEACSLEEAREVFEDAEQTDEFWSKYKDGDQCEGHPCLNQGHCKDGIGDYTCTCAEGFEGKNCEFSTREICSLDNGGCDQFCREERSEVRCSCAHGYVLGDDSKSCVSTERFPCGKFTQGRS
Sequence of Coagulation factor X (Bos taurus) (P00743 234-492 limits assumed): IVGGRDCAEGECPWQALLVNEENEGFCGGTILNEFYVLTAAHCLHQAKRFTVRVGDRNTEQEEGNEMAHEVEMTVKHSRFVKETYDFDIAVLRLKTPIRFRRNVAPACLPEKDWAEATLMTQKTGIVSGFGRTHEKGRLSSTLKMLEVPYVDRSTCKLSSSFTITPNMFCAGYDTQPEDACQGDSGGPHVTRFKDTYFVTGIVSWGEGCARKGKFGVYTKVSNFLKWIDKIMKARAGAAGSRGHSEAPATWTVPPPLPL

As for `CC(=O)N[C@H]1[C@H](O[C@@H]([C@H](O[C@@H]2O[C@@H](C)[C@@H](OS(=O)(=O)[O-])[C@@H](O)[C@@H]2OS(=O)(=O)[O-])[C@@H](O)CO)[C@H](O)C(=O)[O-])O[C@H](COS(=O)(=O)[O-])[C@H](OS(=O)(=O)[O-])[C@@H]1O[C@@H]1OC(C(=O)[O-])=C[C@H](O[C@@H]2O[C@@H](C)[C@@H](OS(=O)(=O)[O-])[C@@H](O)[C@@H]2OS(=O)(=O)[O-])[C@H]1O.[Na+].[Na+].[Na+].[Na+].[Na+].[Na+].[Na+].[Na+]`, the inhibition in assay [1] and in assay [3] was under 10% throughout. Further, the IC50 in assay [2] was 1.15 µM. Further, the 2aPTT in the assay with Plasma [4] came to 106.9 µg/mL. Further, in the assay on Plasma [5], the 2PT is over 128 µg/mL. Further, the 2TT with Plasma [6] was over 128 µg/mL.

As for `CC(=O)N[C@@H](CO)[C@@H](O[C@@H]1OC(C(=O)[O-])=C[C@H](O[C@@H]2O[C@@H](C)[C@@H](OS(=O)(=O)[O-])[C@@H](O)[C@@H]2OS(=O)(=O)[O-])[C@H]1O)[C@@H](OS(=O)(=O)[O-])[C@H](O)COS(=O)(=O)[O-].[Na+].[Na+].[Na+].[Na+].[Na+]`, the inhibition in assay [1] and in assay [3] was under 10% each time. This compound also showed an IC50 in assay [2] of 2.42 µM. For the same compound, the 2aPTT in the assay on Plasma [4] is over 128 µg/mL. Also, the 2PT in the assay on Plasma [5] was over 128 µg/mL. For the same compound, the 2TT in the assay on Plasma [6] was over 128 µg/mL.

For `CC(=O)N[C@H]1[C@H](O[C@@H]([C@H](O[C@@H]2O[C@@H](C)[C@@H](OS(=O)(=O)[O-])[C@@H](O)[C@@H]2OS(=O)(=O)[O-])[C@@H](O)CO)[C@H](O)C(=O)[O-])O[C@H](COS(=O)(=O)[O-])[C@H](OS(=O)(=O)[O-])[C@@H]1O[C@@H]1O[C@H](C(=O)[O-])[C@@H](O[C@@H]2O[C@H](COS(=O)(=O)[O-])[C@H](OS(=O)(=O)[O-])[C@H](O[C@@H]3OC(C(=O)[O-])=C[C@H](O[C@@H]4O[C@@H](C)[C@@H](OS(=O)(=O)[O-])[C@@H](O)[C@@H]4OS(=O)(=O)[O-])[C@H]3O)[C@H]2NC(C)=O)[C@H](O[C@@H]2O[C@@H](C)[C@@H](OS(=O)(=O)[O-])[C@@H](O)[C@@H]2OS(=O)(=O)[O-])[C@H]1O.[Na+].[Na+].[Na+].[Na+].[Na+].[Na+].[Na+].[Na+].[Na+].[Na+].[Na+].[Na+].[Na+]`, the inhibition in assay [1] and in assay [3] was under 10% each time. Further, the IC50 in assay [2] is 0.0987 µM. For the same compound, in the assay on Plasma [4], the 2aPTT turned out to be 14.43 µg/mL. Also, in the assay on Plasma [5], the 2PT was over 128 µg/mL. The 2TT in the assay on Plasma [6] was over 128 µg/mL.
